# Laboratory results taken from ChEMBL document CHEMBL3217590, “Discovery of a new class of dithiocarbamates and rhodanine scaffolds as potent antifungal agents: synthesis, biology and molecular docking” (Medchemcomm, 2012).
# Key:
# Candida albicans [1] = assay: Antifungal activity against Candida albicans after 24 to 48 hrs by broth microdilution technique; format: functional
# Candida parapsilosis = assay: Antifungal activity against Candida parapsilosis ATCC22019 after 24 to 48 hrs by broth microdilution technique; format: functional; settings: Lodderomyces parapsilosis
# Sporothrix schenckii = assay: Antifungal activity against Sporothrix schenckii after 72 to 96 hrs by broth microdilution technique; format: functional
# [2] = system: Trichophyton mentagrophytes; assay: Antifungal activity against Trichophyton mentagrophytes after 72 to 96 hrs by broth microdilution technique; format: functional
# Aspergillus fumigatus = assay: Antifungal activity against Aspergillus fumigatus after 72 to 96 hrs by broth microdilution technique; format: functional
# Cryptococcus neoformans = assay: Antifungal activity against Cryptococcus neoformans after 24 to 48 hrs by broth microdilution technique; format: functional
# Candida albicans [3] = assay: Anticandidal activity against Candida albicans ATCC14053 after 24 to 48 hrs by broth microdilution technique; format: functional
# Candida albicans [4] = assay: Anticandidal activity against Candida albicans CDRI after 24 to 48 hrs by broth microdilution technique; format: functional
# Candida albicans [5] = assay: Anticandidal activity against Candida albicans MTCC183 after 24 to 48 hrs by broth microdilution technique; format: functional
# Candida albicans [6] = assay: Anticandidal activity against Candida albicans ATCC-MYA 2950 after 24 to 48 hrs by broth microdilution technique; format: functional
# Candida albicans [7] = assay: Anticandidal activity against amphotericin-B resistant Candida albicans after 24 to 48 hrs by broth microdilution technique; format: functional
# Candida albicans [8] = assay: Ratio of fluconazole MIC to compound MIC against amphotericin-B resistant Candida albicans after 24 to 48 hrs by broth microdilution technique; format: functional
# L929 [9] = assay: Cytotoxicity against mouse L929 cells assessed as morphological changes up to 3.12 ug/ml after 24 hrs by giemsa staining based phase contrast microscopy; format: cell-based; settings: l929, 24 h
# L929 [10] = assay: Cytotoxicity against mouse L929 cells assessed as decline in cell survival at 12.5 to 50 ug/ml after 24 hrs by spectrophotometric analysis; format: cell-based; settings: l929, 24 h
# Candida albicans [11] = assay: Anticandidal activity against Candida albicans ATCC10231 after 24 to 48 hrs by broth microdilution technique; format: functional
# Candida albicans [12] = assay: Anticandidal activity against Candida albicans isolated from patient after 24 to 48 hrs by broth microdilution technique; format: functional
# Candida albicans [13] = assay: Anticandidal activity against Candida albicans ATCC750 after 24 to 48 hrs by broth microdilution technique; format: functional
Compound,MIC (Candida albicans [1]) [mg/L],MIC (Candida parapsilosis) [mg/L],MIC (Sporothrix schenckii) [mg/L],MIC [2] [mg/L],MIC (Aspergillus fumigatus) [mg/L],MIC (Cryptococcus neoformans) [mg/L],MIC (Candida albicans [3]) [mg/L],MIC (Candida albicans [4]) [mg/L],MIC (Candida albicans [5]) [mg/L],MIC (Candida albicans [6]) [mg/L],MIC (Candida albicans [7]) [mg/L],Ratio (Candida albicans [8]),Activity (L929 [9]),Activity (L929 [10]),MIC (Candida albicans [11]) [mg/L],MIC (Candida albicans [12]) [mg/L],MIC (Candida albicans [13]) [mg/L]
CCc1ccc(/C=C2\SC(=S)N(Cc3ccncc3)C2=O)cc1,> 50,> 50,> 50,> 50,> 50,> 50,,,,,,,,,,,
O=C1/C(=C/c2ccco2)SC(=S)N1Cc1ccncc1,3.12,50,3.12,12.5,> 50,25,1.56,25,3.12,6.25,6.25,1,Non-toxic,Toxic,,,
Clc1ccccc1C(c1ccccc1)(c1ccccc1)n1ccnc1 [CLOTRIMAZOLE],0.25,0.5,4,2,2,0.25,,,,,,,,,,,
COc1ccc(/C=C2\SC(=S)N(Cc3ccncc3)C2=O)cc1OC,25,25,> 50,> 50,> 50,50,,,,,,,,,,,
O=C1/C(=C/c2ccc(/C=C3\SC(=S)N(Cc4ccncc4)C3=O)cc2)SC(=S)N1Cc1ccncc1,> 50,> 50,> 50,> 50,> 50,> 50,,,,,,,,,,,
O=C1/C(=C/c2cccc3ccccc23)SC(=S)N1Cc1ccncc1,25,50,12.5,25,> 50,50,,,,,,,,,,,
S=C(NCc1ccncc1)SCc1ccccc1,1.56,1.56,6.25,6.25,25,1.56,0.78,1.56,0.39,1.56,12.5,,Non-toxic,Toxic,1.56,1.56,3.12
O=C1/C(=C/c2ccc(OCCOc3ccc(/C=C4\SC(=S)N(Cc5ccncc5)C4=O)cc3)cc2)SC(=S)N1Cc1ccncc1,> 50,> 50,> 50,> 50,> 50,> 50,,,,,,,,,,,
CCCCSC(=S)NCc1ccncc1,3.12,6.25,3.12,3.12,50,3.12,3.12,12.5,1.56,12.5,1.56,5,Non-toxic,Toxic,6.25,12.5,12.5
O=C1/C(=C/c2cccnc2)SC(=S)N1Cc1ccncc1,1.56,6.25,1.56,6.25,25,3.12,0.78,1.56,0.78,1.56,6.25,1,,,3.12,3.12,3.12
FC(F)(F)c1ccc(CSC(=S)NCc2ccncc2)cc1,1.56,1.56,6.25,6.25,50,1.56,,1.56,0.78,1.56,12.5,,Non-toxic,Toxic,,3.12,3.12
OC(Cn1cncn1)(Cn1cncn1)c1ccc(F)cc1F [FLUCONAZOLE],1,0.5,4,16,> 32,2,0.25,0.125,4,0.062,8,,,,1,0.25,0.5
O=C1/C(=C/c2ccc(OCCCCCOc3ccc(/C=C4\SC(=S)N(Cc5ccncc5)C4=O)cc3)cc2)SC(=S)N1Cc1ccncc1,> 50,> 50,> 50,> 50,> 50,> 50,,,,,,,,,,,
